In brackets after ≈: the same amount, converted by molar mass.

The nature of series [1]: Solubility / dissolution in aqueous media. Type of series: physicochemical.
Protocol: 2.00 g HPBCD was dissolved in 4 mL deionized and filtered water by slow inversion/rotation. […] The volume was adjusted to 5.00 mL to provide 5.00 mL of a 40% clear solution by weight. To the 5.00 mL solution of 40% HPBCD was added 175 mg ciclopirox powder, and the vial was sealed and placed under slow rotary inversion to dissolve the solid. […] This 35 mg/mL solution was easily filtered through a 0.22 um syringe filter (MILLEX GV, PVDF membrane).
To the 5.00 mL solution of 40% HPBCD was added 175 mg (0.844 mmol, MW 207.3) ciclopirox powder and the vial sealed and placed under slow rotary inversion to dissolve the solid. […] This 35 mg/mL solution was easily filtered through a 0.22 um syringe filter (MILLEX GV, PVDF membrane).
For series [2] the following is noted: in water; cited from earlier work.

With `Cc1cc(C2CCCCC2)n(O)c(=O)c1` [ciclopirox, 6-cyclohexyl-1-hydroxy-4-methyl-2(1H)-pyridone], the solubility in series [1] (aqueous buffer, pH 7.4 phosphate buffer (no saline)) came out at 1 mg/mL (≈ 4.82 mM). Further, in series [1] (in 40% HPBCD, after 1 hour mixing), the concentration completely dissolved is 35000 µg/mL.

As for `OC[C@H]1O[C@@H]2O[C@H]3[C@H](O)[C@@H](O)[C@@H](O[C@H]4[C@H](O)[C@@H](O)[C@@H](O[C@H]5[C@H](O)[C@@H](O)[C@@H](O[C@H]6[C@H](O)[C@@H](O)[C@@H](O[C@H]7[C@H](O)[C@@H](O)[C@@H](O[C@H]8[C@H](O)[C@@H](O)[C@@H](O[C@H]9[C@H](O)[C@@H](O)[C@@H](O[C@H]1[C@H](O)[C@H]2O)O[C@@H]9CO)O[C@@H]8CO)O[C@@H]7CO)O[C@@H]6CO)O[C@@H]5CO)O[C@@H]4CO)O[C@@H]3CO` [gamma cyclodextrin], the solubility limit result in series [2] was “about 23.2 mg/mL”.

The solubility is how much of the substance goes into solution per volume. High values mean much dissolved substance, low ones little dissolved substance.

(Values after patent publication US12310970B2, “Compounds and methods for treating or preventing anterior segment ocular disorders and/or retinal degenerations” (YALE UNIVERSITY, priority 2018, dated 2025).)
